Data as given in ChEMBL document CHEMBL1146244, “Stictic acid derivatives from the lichen Usnea articulata and their antioxidant activities” (J Nat Prod, 2007).

Tests used:
[1] = DPPH radical scavenging activity at 3000 uM; type: functional
[2] = Superoxide radical scavenging activity; type: functional

| IC50 [2] [µM] | Compound | Activity [1] [%] |
| --- | --- | --- |
| – | COc1cc(C)c2c(c1CO)Oc1c3c(c(O)c(C)c1OC2=O)C(=O)OC3 | 18 |
| 566 | Cc1cc(O)c(C=O)c2c1C(=O)Oc1c(C)c(O)c3c(c1O2)C(O)OC3=O (stereo not given) [NORSTICTIC ACID] | – |
| 580 | Cc1cc(O)c(C=O)c2c1C(=O)Oc1c(COC(=O)/C=C/C(=O)O)c(O)c(C(=O)O)c(C)c1O2 [FUMARPROTOCETRARIC ACID] | 20 |
| – | COc1cc(C)c2c(c1C=O)Oc1c(C=O)c(C(=O)O)c(O)c(C)c1OC2=O | 30 |
